pEC50: −log10 of the molar value.
Experiments:
[1] = tested on: wild type human immunodeficiency virus (HIV) strain IIIB; assay: HIV assay in MT4 LTR-EGFP cells; assay type: cell-based, HIV-1; details: Human immunodeficiency virus 1, IIIB, 72 h, three days after infection
Procedure: (§1) Compounds of the invention were tested for their potency against wild type human immunodeficiency virus (HIV). Antiviral activity was evaluated using a cellular assay performed according to the following procedure. The human T-cell line MT4 was engineered with Green Fluorescent Protein (GFP) and a HIV-specific promoter, HIV-1 long terminal repeat (LTR). This cell line, designated MT4 LTR-EGFP, can be used for the in vitro evaluation of anti-HIV activity of investigational compounds. In HIV-1 infected cells, the Tat protein is produced, which upregulates the LTR promotor and eventually leads to stimulation of the GFP reporter production, allowing to measure ongoing HIV-infection fluorometrically. Effective concentration values such as 50% effective concentration (EC50) can be determined and are usually expressed in μM. An EC50 value is defined as the concentration of test compound that reduces the fluorescence of HIV-infected cells by 50%. Monitoring of HIV-1 infection was done using a scanning microscope. Image analysis allows very sensitive detection of viral infection. Measurements were done before cell necrosis, which usually takes place about five days after infection, in particular measurements were performed three days after infection. The column IIIB in the table list the EC50 values against the wild type strain IIIB.

[2] = Cellular toxicity in the HIV cell-line (MT-4); assay type: cell-based, human; details: human
Procedure: as §1
Also the HIV activity is given (EC50 HIV (μM)) and the cellular toxicity in the HIV cell-line (CC50 (μM) (MT-4)).

[3] = tested on: HCV replicon (Huh-7 luc/neo, NS3-NS5B of HCV type 1b); assay: HCV replicon assay (Huh-Luc, luciferase readout); assay type: cell-based; details: Huh-Luc cells, HCV type 1b replicon, three days incubation, luciferase activity
From the text: The compounds of formula I were examined for activity in the inhibition of HCV RNA replication in a cellular assay aimed at identifying compounds that inhibit a HCV functional cellular replicating cell line, also known as HCV replicons. The cellular assay was based on a bicistronic expression construct, as described by Lohmann et al. (1999), Science vol. 285 pp. 110-113 with modifications described by Krieger et al. (2001), Journal of Virology 75: 4614-4624, in a multi-target screening strategy.
The assay utilized the stably transfected cell line Huh-7 luc/neo (hereafter referred to as Huh-Luc). This cell line harbors an RNA encoding a bicistronic expression construct comprising the wild type NS3-NS5B regions of HCV type 1b translated from an Internal Ribosome Entry Site (IRES) from encephalomyocarditis virus (EMCV), preceded by a reporter portion (FfL-luciferase), and a selectable marker portion (neoR, neomycine phosphotransferase). The construct is bordered by 5′ and 3′ NTRs (non-translated regions) from HCV type 1b. Continued culture of the replicon cells in the presence of G418 (neo^R) is dependent on the replication of the HCV RNA. The stably transfected replicon cells that express HCV RNA, which replicates autonomously and to high levels, encoding inter alia luciferase, were used for screening the antiviral compounds.
The replicon cells were plated in 384 well plates in the presence of the test and control compounds which were added in various concentrations. Following an incubation of three days, HCV replication was measured by assaying luciferase activity (using standard luciferase assay substrates and reagents and a Perkin Elmer ViewLux™ ultraHTS microplate imager). Replicon cells in the control cultures have high luciferase expression in the absence of any inhibitor. The inhibitory activity of the compound on luciferase activity was monitored on the Huh-Luc cells, enabling a dose-response curve for each test compound. EC50 values were then calculated, which value represents the amount of the compound required to decrease the level of detected luciferase activity by 50%, or more specifically, the ability of the genetically linked HCV replicon RNA to replicate.

[4] = Cellular toxicity in Huh7-CMV-Luc replicon assay; assay type: cell-based; details: human, Huh7-CMV-Luc cells, three days incubation, Luc activity; read-out: CC50 (μM) (Huh-7)
Procedure: Cellular toxicity was determined in the Huh7-CMV-Luc replicon assay. Replicon cells (2500 cells/well), stably transformed with a luciferase reporter gene under control of the cytomegalovirus (CMV) constitutive promotor, were cultured in the presence or absence of test compound concentrations. After three days of incubation at 37° C. in a humidified 5% CO2 atmosphere, cell proliferation was quantified by measuring the Luc activity, and expressed as CC50 values (cytotoxicity, 50% inhibitory concentration of cell growth). Tests were performed in 384-well plates.

Structure (SMILES)	pEC50 [1]	CC50 [2]	EC50 ([3]; Hepatitis C virus, Huh-7, 72 h)	CC50 at 3 days [4]	EC50 [3]
CCOC(=O)C1(NP(=O)(OC[C@H]2O[C@@H](n3ccc(=O)[nH]c3=O)C3(CC3)[C@@H]2O)Oc2ccccc2)CCC1 (some centres unmarked) [Compound 32]	< 4.01	> 98 µM	> 98 µM	> 98 µM	
O=C(CNP(=O)(OC[C@H]1O[C@@H](n2ccc(=O)[nH]c2=O)C2(CC2)[C@@H]1O)Oc1cccc2ccccc12)OCc1ccccc1 (some centres unmarked) [Compound 6]	< 4.05	> 98 µM	16.5 µM	> 98 µM	
CCC(C)OC(=O)[C@H](C)NP(=O)(OC[C@H]1O[C@@H](n2ccc(=O)[nH]c2=O)C2(CC2)[C@@H]1O)Oc1ccccc1 (some centres unmarked) [Compound 24]	< 4.01	> 98 µM	12.4 µM	> 98 µM	
Cc1ccc(C(C)C)cc1OP(=O)(N[C@@H](C)C(=O)OCc1ccccc1)OC[C@H]1O[C@@H](n2ccc(=O)[nH]c2=O)C2(CC2)[C@@H]1O (some centres unmarked) [Compound 25]	< 4.01	23 µM	23.1 µM	> 32 µM	
CCCC(CCC)COC(=O)[C@H](C)NP(=O)(OC[C@H]1O[C@@H](n2ccc(=O)[nH]c2=O)C2(CC2)[C@@H]1O)Oc1ccccc1 (some centres unmarked) [Compound 10]	< 4.22	29 µM	2.8 µM	> 32 µM	
C[C@H](NP(=O)(OC[C@H]1O[C@@H](n2ccc(=O)[nH]c2=O)C2(CC2)[C@@H]1O)Oc1ccccc1)C(=O)OCc1ccccc1 (some centres unmarked) [Compound 9]	< 4.07	> 98 µM	2.9 µM	> 98 µM	
C[C@H](NP(=O)(OC[C@H]1O[C@@H](n2ccc(=O)[nH]c2=O)C2(CC2)[C@@H]1O)Oc1ccccc1)C(=O)OCC(C)(C)C (some centres unmarked) [Compound 11]	< 4.01	> 98 µM	2.8 µM	> 98 µM	
COC(=O)C(C)(C)NP(=O)(OC[C@H]1O[C@@H](n2ccc(=O)[nH]c2=O)C2(CC2)[C@@H]1O)Oc1ccccc1 (some centres unmarked) [Compound 27]	< 4.01	> 98 µM	91.4 µM	> 98 µM	
CC(C)OC(=O)C(C)(C)NP(=O)(OC[C@H]1O[C@@H](n2ccc(=O)[nH]c2=O)C2(CC2)[C@@H]1O)Oc1ccccc1 (some centres unmarked) [Compound 28]	< 4.01	> 98 µM	> 98 µM	> 98 µM	
CCOC(=O)C1(NP(=O)(OC[C@H]2O[C@@H](n3ccc(=O)[nH]c3=O)C3(CC3)[C@@H]2O)Oc2ccc(Cl)cc2)CCC1 (some centres unmarked) [Compound 26]	< 4.01	> 98 µM	73.7 µM	> 98 µM	
C[C@H](NP(=O)(OC[C@H]1O[C@@H](n2ccc(=O)[nH]c2=O)C2(CC2)[C@@H]1O)Oc1ccc(Cl)cc1)C(=O)OCc1ccccc1 (some centres unmarked) [Compound 7]	< 4.05	> 64 µM	6.1 µM	> 90 µM	
Cc1cc(OP(=O)(N[C@@H](C)C(=O)OCc2ccccc2)OC[C@H]2O[C@@H](n3ccc(=O)[nH]c3=O)C3(CC3)[C@@H]2O)c(C(C)C)cc1Cl (some centres unmarked) [Compound 2]	< 4.30	> 32 µM	14.3 µM	> 32 µM	
CCOC(=O)[C@H](C)NP(=O)(OC[C@H]1O[C@@H](n2ccc(=O)[nH]c2=O)C2(CC2)[C@@H]1O)Oc1ccccc1 (some centres unmarked) [Compound 5]	< 4.05	> 98 µM	9.2 µM	> 98 µM	
CCCCOC(=O)[C@H](C)NP(=O)(OC[C@H]1O[C@@H](n2ccc(=O)[nH]c2=O)C2(CC2)[C@@H]1O)Oc1ccccc1 (some centres unmarked) [Compound 12]	< 4.01	> 98 µM	3.1 µM	> 98 µM	
CCOC(=O)[C@H](C)NP(=O)(OC[C@H]1O[C@@H](n2ccc(=O)[nH]c2=O)C2(CC2)[C@@H]1O)Oc1ccc(Cl)cc1 (some centres unmarked) [Compound 8]	< 4.01	> 98 µM	5.9 µM	> 98 µM	
C=CCCCCOC(=O)[C@H](C)NP(=O)(OC[C@H]1O[C@@H](n2ccc(=O)[nH]c2=O)C2(CC2)[C@@H]1O)Oc1ccc(CC=C)cc1OC (some centres unmarked) [Compound 18]	< 4.01	> 64 µM	5.1 µM	> 98 µM	
C[C@H](NP(=O)(OC[C@H]1O[C@@H](n2ccc(=O)[nH]c2=O)C2(CC2)[C@@H]1O)Oc1ccc(Cl)cc1)C(=O)OCc1ccccc1 (single isomer, unassigned) [Compound 7a]	< 4.22	> 50 µM		58.4 µM	10.9 µM
C[C@H](NP(=O)(OC[C@H]1O[C@@H](n2ccc(=O)[nH]c2=O)C2(CC2)[C@@H]1O)Oc1cccc2ccccc12)C(=O)OCc1ccccc1 (some centres unmarked) [Compound 1]	< 4.30	> 32 µM	2.8 µM	> 98 µM	
C[C@H](NP(=O)(OC[C@H]1O[C@@H](n2ccc(=O)[nH]c2=O)C2(CC2)[C@@H]1O)Oc1ccccc1)C(=O)OC(C)(C)C (some centres unmarked) [Compound 30]	< 4.01	> 98 µM	> 98 µM	> 98 µM	
CC(C)COC(=O)[C@H](C)NP(=O)(OC[C@H]1O[C@@H](n2ccc(=O)[nH]c2=O)C2(CC2)[C@@H]1O)Oc1ccccc1 (some centres unmarked) [Compound 13]	< 4.01	> 98 µM	3.2 µM	> 98 µM	
CC(C)OC(=O)[C@H](C)NP(=O)(OC[C@H]1O[C@@H](n2ccc(=O)[nH]c2=O)C2(CC2)[C@@H]1O)Oc1ccccc1 (some centres unmarked) [Compound 3]	< 4.01	> 98 µM	9.6 µM	> 98 µM	
Cc1ccc(C(C)C)c(OP(=O)(N[C@@H](C)C(=O)OCc2ccccc2)OC[C@H]2O[C@@H](n3ccc(=O)[nH]c3=O)C3(CC3)[C@@H]2O)c1 (some centres unmarked) [Compound 22]	5.78	2.1 µM	9.2 µM	> 32 µM	
C[C@H](NP(=O)(OC[C@H]1O[C@@H](n2ccc(=O)[nH]c2=O)C2(CC2)[C@@H]1O)Oc1ccc(C(C)(C)C)cc1)C(=O)OCc1ccccc1 (some centres unmarked) [Compound 19]	< 4.49	> 32 µM	7.2 µM	> 32 µM	
CCOC(=O)c1ccccc1OP(=O)(N[C@@H](C)C(=O)OCc1ccccc1)OC[C@H]1O[C@@H](n2ccc(=O)[nH]c2=O)C2(CC2)[C@@H]1O (some centres unmarked) [Compound 34]			11 µM	> 98 µM	
CCCCCCCCOC(=O)[C@H](C)NP(=O)(OC[C@H]1O[C@@H](n2ccc(=O)[nH]c2=O)C2(CC2)[C@@H]1O)Oc1ccc(Cl)cc1 (some centres unmarked) [Compound 23]	< 4.01	> 30 µM	11.2 µM	> 32 µM	
CCOC(=O)[C@H](Cc1ccccc1)NP(=O)(OC[C@H]1O[C@@H](n2ccc(=O)[nH]c2=O)C2(CC2)[C@@H]1O)Oc1ccccc1 (some centres unmarked) [Compound 17]	< 4.01	> 98 µM	4.4 µM	> 98 µM	
C[C@H](NP(=O)(OC[C@H]1O[C@@H](n2ccc(=O)[nH]c2=O)C2(CC2)[C@@H]1O)Oc1ccc2c(ccn2C(=O)OC(C)(C)C)c1)C(=O)OCc1ccccc1 (some centres unmarked) [Compound 16]	< 4.01	> 32 µM	4.2 µM	> 32 µM	
CCOC(=O)C1(NP(=O)(OC[C@H]2O[C@@H](n3ccc(=O)[nH]c3=O)C3(CC3)[C@@H]2O)Oc2ccccc2)CC1 (some centres unmarked) [Compound 29]	< 4.01	> 98 µM	> 98 µM	> 98 µM	

From patent US8399429B2, “Uracyl cyclopropyl nucleotides” (Janssen Products, LP, priority 2008, dated 2013)
